# Reference: patent publication US5756532A, “Aminomethyl-2 3 8 9-tetrahydro-7H-1 4-dioxino[2 3-E]-indol-8-ones and derivatives” (American Home Products Corporation, priority 1996, dated 1998)
# Target: T1, dopamine D2 receptor (Rattus norvegicus, UniProt P61169)
# T1 construct: homogenized rat striatal brain tissue; from tissue; host or cells: rat striatum (homogenate)
# Test: Affinity for the dopamine D2 receptor (3H-quinpirole, rat striatal brain tissue homogenate)
# Format: binding
# Conditions: homogenized rat striatal brain tissue
# Description: Affinity for the dopamine D2 receptor was established by a modification of the standard experimental test procedure of Seemen and Schaus, European Journal of Pharmacology 203: 105-109, 1991, wherein homogenized rat striatal brain tissue is incubated with ^3 H-quinpirole and various concentrations of test compound, filtered and washed and counted in a Betaplate scintillation counter.
# T1 sequence (P61169 whole entry): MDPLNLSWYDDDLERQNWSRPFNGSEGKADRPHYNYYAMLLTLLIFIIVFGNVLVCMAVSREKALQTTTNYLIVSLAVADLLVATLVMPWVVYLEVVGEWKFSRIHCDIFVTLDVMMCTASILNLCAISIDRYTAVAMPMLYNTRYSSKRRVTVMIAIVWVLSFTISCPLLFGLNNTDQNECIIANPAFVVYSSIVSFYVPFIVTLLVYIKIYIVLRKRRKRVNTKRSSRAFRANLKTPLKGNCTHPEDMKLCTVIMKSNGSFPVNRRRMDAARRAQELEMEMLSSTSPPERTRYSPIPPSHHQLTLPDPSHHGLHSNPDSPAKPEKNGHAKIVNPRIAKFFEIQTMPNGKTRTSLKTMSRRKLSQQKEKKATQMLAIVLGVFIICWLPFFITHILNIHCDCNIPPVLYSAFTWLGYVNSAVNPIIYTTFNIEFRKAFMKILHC
row,IC50,Structure (SMILES)
1,2.8 nM,"O=C1Nc2ccc3c(c2C1=Cc1ccccc1)O[C@@H](CNCc1ccccc1)CO3 [Example 2, 2-(Benzylamino-methyl)-1-benzylidene-2,3,8,9-tetrahydro-7H-1,4-dioxino[2,3-e]indol-8-one]"
2,1.79 nM,O=C1Cc2c(ccc3c2O[C@@H](CNCCc2c[nH]c4ccccc24)CO3)N1 [Example 4]
3,1.42 nM,"O=C1Cc2c(ccc3c2O[C@@H](CNCCCO)CO3)N1 [Example 5, 2-[(3-Hydroxy-propylamino)-methyl]-2,3,8,9-tetrahydro-7H-1,4-dioxino[2,3-e]indol-8-one]"
4,12.3 nM,"O=C1CCc2c(ccc3c2O[C@@H](CNCc2ccccc2)CO3)N1 [Example 6, 2-(Benzylamino-methyl)-2,3,9,10-tetrahydro-7H-1,4-dioxino[2,3-f]quinolin-8-one]"
5,9.93 nM,"NC[C@H]1COc2ccc3c(c2O1)CC(=O)N3 [Example 8, 2-Aminomethyl-2,3,8,9-tetrahydro-7H-1,4-dioxino[2,3-e]indol-8-one]"
6,0.37 nM,"O=C1Cc2c(ccc3c2O[C@@H](CNCC2CCCCC2)CO3)N1 [Example 9, 2-(Cyclohexylmethylamino-methyl)-2,3,8,9-tetrahydro-7H-1,4-dioxino[2,3-e]indol-8-one]"
7,3.06 nM,"O=C1Cc2c(ccc3c2O[C@@H](CNCCc2cccnc2)CO3)N1 [Example 10, 2-[(2-Pyridin-3yl-ethylamino)-methyl]-2,3,8,9-tetrahydro-7H-1,4-dioxino-[2,3-e]indol-8one]"
8,1.39 nM,O=C1Cc2c(ccc3c2O[C@@H](CNCCCOc2ccc4cccnc4c2)CO3)N1 [Example 13]
9,0.45 nM,"CCCCCNC[C@H]1COc2ccc3c(c2O1)CC(=O)N3 [Example 16, 2-(Pentylaminomethyl)-2,3,8,9-tetrahydro-7H-1,4-dioxino[2,3-e]indol-8-one]"
10,0.49 nM,"O=C1Cc2c(ccc3c2O[C@@H](CNCc2cccc4ccccc24)CO3)N1 [Example 18, 2-(Napthalen-1-yl-methylamino-methyl)-2,3,8,9-tetrahydro-7H-1,4-dioxono[2,3-e]indol-8-one]"
11,0.34 nM,"O=C1Cc2c(ccc3c2O[C@@H](CNCc2ccc(C(F)(F)F)cc2)CO3)N1 [Example 19, 2-(4-Trifluoromethyl-benzylamino-methyl)-2,3,8,9-tetrahydro-7H-1,4-dioxino [2,3-e]indol-8-one]"
12,0.29 nM,"O=C1Cc2c(ccc3c2O[C@@H](CNCc2ccc(F)cc2)CO3)N1 [Example 20, 2-(4-Fluoro-benzylamino)-methyl-2,3,8,9-tetrahydro-7H-1,4-dioxino[2,3-e]-indol-8-one]"
13,0.33 nM,"O=C1Cc2c(ccc3c2O[C@@H](CNCCCCc2ccccc2)CO3)N1 [Example 21, 2-(4-Phenyl-butylamino)-methyl-2,3,8,9-tetrahydro-7H-1,4-dioxino[2,3-e]indol-8-one]"
14,17.7 nM,O=C1Nc2ccc3c(c2C1=Cc1ccc(F)cc1)O[C@@H](CNCc1ccc(F)cc1)CO3 [Example 22]
15,0.89 nM,"CC(=O)Nc1cccc(OCCCNC[C@H]2COc3ccc4c(c3O2)CC(=O)N4)c1 [Example 23, N-(3-{3-[(8-Oxo-2,3,8,9-tetrahydro-7H-1,4-dioxinor[2,3-e]indol-2-ylmethyl)-amino]-propoxy}-phenyl)-acetamide]"
16,1.04 nM,"O=C1Cc2c(ccc3c2O[C@@H](CNCc2cccc(C(F)(F)F)c2)CO3)N1 [Example 25, 2-[(3-Trifluoromethyl-benzylamino)-methyl]-2,3,8,9-tetrahydro-7H-1,4-dioxino [2,3-e]indol-8-one]"
17,0.52 nM,O=C1Nc2ccc3c(c2C1=O)O[C@@H](CNCc1ccccc1)CO3 [Example 26]
18,3.3 nM,"Cc1cc2c(c3c1NC(=O)C3)O[C@@H](CNCc1cccs1)CO2 [Example 29, 2-{[(Thiophene-2-ylmethyl)-amino]-methyl}-6-methyl-2,3,8,9-tetrahydro-7H-1,4-dioxino[2,3-e]indol-8-one]"
19,1.3 nM,"Cc1cc2c(c3c1NC(=O)C3)O[C@@H](CNCc1ccccc1)CO2 [Example 31, 2-(Benzylamino-methyl)-6-methyl-2,3,8,9-tetrahydro-7H-1,4-dioxino[2,3-e]indol-8-one]"
